Assay results taken from PubChem BioAssay (NCI).
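Growth conditions: 96-well plates. Treatment: test compound, 48 hours, 5 concentrations. Analysis: linear interpolation between bracketing concentrations; unreached endpoints set to highest concentration. GI50 = concentration required for 50% inhibition of growth. TGI: total growth inhibition.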

Assays:
Assay in all cases: NCI anticancer screen, dose series, 48 h
SR leukemia = tested on: SR leukemia
HL-60(TB) leukemia = tested on: HL-60(TB) leukemia
SNB-19 CNS = tested on: SNB-19 CNS
HCT-116 colon = tested on: HCT-116 colon
NCI/ADR-RES ovarian = tested on: NCI/ADR-RES ovarian
IGROV1 ovarian = tested on: IGROV1 ovarian
OVCAR-4 ovarian = tested on: OVCAR-4 ovarian
KM12 colon = tested on: KM12 colon
SF-268 CNS = tested on: SF-268 CNS
NCI-H23 lung = tested on: NCI-H23 lung
UO-31 renal = tested on: UO-31 renal
SN12C renal = tested on: SN12C renal
COLO 205 colon = tested on: COLO 205 colon
HCC-2998 colon = tested on: HCC-2998 colon
CCRF-CEM leukemia = tested on: CCRF-CEM leukemia
CAKI-1 renal = tested on: CAKI-1 renal
MDA-MB-231 breast = tested on: MDA-MB-231 breast
DU-145 prostate = tested on: DU-145 prostate
MOLT-4 leukemia = tested on: MOLT-4 leukemia
SK-MEL-5 melanoma = tested on: SK-MEL-5 melanoma
HS 578T breast = tested on: HS 578T breast
SK-OV-3 ovarian = tested on: SK-OV-3 ovarian
M14 melanoma = tested on: M14 melanoma
TK-10 renal = tested on: TK-10 renal
OVCAR-8 ovarian = tested on: OVCAR-8 ovarian
HCT-15 colon = tested on: HCT-15 colon
SF-295 CNS = tested on: SF-295 CNS
OVCAR-3 ovarian = tested on: OVCAR-3 ovarian
NCI-H522 lung = tested on: NCI-H522 lung
UACC-257 melanoma = tested on: UACC-257 melanoma
NCI-H460 lung = tested on: NCI-H460 lung
EKVX NSCLC = tested on: EKVX NSCLC
UACC-62 melanoma = tested on: UACC-62 melanoma
MDA-MB-435 = tested on: MDA-MB-435
NCI-H226 lung = tested on: NCI-H226 lung
HOP-92 NSCLC = tested on: HOP-92 NSCLC
RXF 393 renal = tested on: RXF 393 renal
PC-3 prostate = tested on: PC-3 prostate
T-47D breast = tested on: T-47D breast
MCF7 breast = tested on: MCF7 breast
ACHN renal = tested on: ACHN renal
A498 renal = tested on: A498 renal
SK-MEL-28 melanoma = tested on: SK-MEL-28 melanoma
SW-620 colon = tested on: SW-620 colon
U251 CNS = tested on: U251 CNS
OVCAR-5 ovarian = tested on: OVCAR-5 ovarian
SK-MEL-2 melanoma = tested on: SK-MEL-2 melanoma
HT29 colon = tested on: HT29 colon
K-562 leukemia = tested on: K-562 leukemia
LOX IMVI melanoma = tested on: LOX IMVI melanoma
SF-539 CNS = tested on: SF-539 CNS
HOP-62 NSCLC = tested on: HOP-62 NSCLC
A549 NSCLC = tested on: A549 NSCLC
786-0 renal = tested on: 786-0 renal
BT-549 breast = tested on: BT-549 breast
RPMI-8226 leukemia = tested on: RPMI-8226 leukemia
SNB-75 CNS = tested on: SNB-75 CNS
MALME-3M melanoma = tested on: MALME-3M melanoma

CN1C(=NCCO)NS(=O)(=O)c2ccccc21
TGI (SR leukemia): > 100 µM
TGI (HL-60(TB) leukemia): > 100 µM
TGI (SNB-19 CNS): > 100 µM
TGI (HCT-116 colon): > 100 µM
TGI (NCI/ADR-RES ovarian): > 100 µM
TGI (IGROV1 ovarian): > 100 µM
TGI (OVCAR-4 ovarian): > 100 µM
TGI (KM12 colon): > 100 µM
TGI (SF-268 CNS): > 100 µM
TGI (NCI-H23 lung): > 100 µM
TGI (UO-31 renal): > 100 µM
TGI (SN12C renal): > 100 µM
TGI (COLO 205 colon): > 100 µM
TGI (HCC-2998 colon): > 100 µM
TGI (CCRF-CEM leukemia): > 100 µM
TGI (CAKI-1 renal): > 100 µM
TGI (MDA-MB-231 breast): > 100 µM
TGI (DU-145 prostate): > 100 µM
TGI (MOLT-4 leukemia): > 100 µM
TGI (SK-MEL-5 melanoma): > 100 µM
TGI (HS 578T breast): > 100 µM
TGI (SK-OV-3 ovarian): > 100 µM
TGI (M14 melanoma): > 100 µM
TGI (TK-10 renal): > 100 µM
TGI (OVCAR-8 ovarian): > 100 µM
TGI (HCT-15 colon): > 100 µM
TGI (SF-295 CNS): > 100 µM
TGI (OVCAR-3 ovarian): > 100 µM
TGI (NCI-H522 lung): > 100 µM
TGI (UACC-257 melanoma): > 100 µM
TGI (NCI-H460 lung): > 100 µM
TGI (EKVX NSCLC): > 100 µM
TGI (UACC-62 melanoma): > 100 µM
TGI (MDA-MB-435): > 100 µM
TGI (NCI-H226 lung): > 100 µM
TGI (HOP-92 NSCLC): > 100 µM
TGI (RXF 393 renal): > 100 µM
TGI (PC-3 prostate): > 100 µM
TGI (T-47D breast): > 100 µM
TGI (MCF7 breast): > 100 µM
TGI (ACHN renal): > 100 µM
TGI (A498 renal): > 100 µM
TGI (SK-MEL-28 melanoma): > 100 µM
TGI (SW-620 colon): > 100 µM
TGI (U251 CNS): > 100 µM
TGI (OVCAR-5 ovarian): > 100 µM
TGI (SK-MEL-2 melanoma): > 100 µM
TGI (HT29 colon): > 100 µM
TGI (K-562 leukemia): > 100 µM
TGI (LOX IMVI melanoma): > 100 µM
TGI (SF-539 CNS): > 100 µM
TGI (HOP-62 NSCLC): > 100 µM
TGI (A549 NSCLC): > 100 µM
TGI (786-0 renal): > 100 µM
TGI (BT-549 breast): > 100 µM

N#Cc1cc2c(cc1Cl)Sc1nnc(Nc3cccc4ccccc34)n1S2(=O)=O
GI50 (RPMI-8226 leukemia): 2.66 µM
TGI (RPMI-8226 leukemia): 7.77 µM
GI50 (SR leukemia): 2.21 µM
TGI (SR leukemia): 7.82 µM
GI50 (HL-60(TB) leukemia): 2.75 µM
TGI (HL-60(TB) leukemia): 20.2 µM
GI50 (SNB-19 CNS): 1.89 µM
TGI (SNB-19 CNS): 4.29 µM
GI50 (HCT-116 colon): 3.98 µM
TGI (HCT-116 colon): 14.2 µM
GI50 (SNB-75 CNS): 6.43 µM
TGI (SNB-75 CNS): 18.2 µM
GI50 (NCI/ADR-RES ovarian): 2.11 µM
TGI (NCI/ADR-RES ovarian): 4.4 µM
GI50 (IGROV1 ovarian): 7.38 µM
TGI (IGROV1 ovarian): 21.2 µM
GI50 (OVCAR-4 ovarian): 6.48 µM
TGI (OVCAR-4 ovarian): 26.8 µM
GI50 (KM12 colon): 2.99 µM
TGI (KM12 colon): 10.1 µM
GI50 (SF-268 CNS): 2.85 µM
TGI (SF-268 CNS): 10.1 µM
GI50 (NCI-H23 lung): 1.8 µM
TGI (NCI-H23 lung): 3.43 µM
GI50 (UO-31 renal): 7.41 µM
TGI (UO-31 renal): 20.5 µM
GI50 (SN12C renal): 2.51 µM
TGI (SN12C renal): 6.73 µM
GI50 (COLO 205 colon): 2.34 µM
TGI (COLO 205 colon): 4.52 µM
GI50 (CAKI-1 renal): 3.14 µM
TGI (CAKI-1 renal): 10.9 µM
GI50 (MDA-MB-231 breast): 2.49 µM
TGI (MDA-MB-231 breast): 6.96 µM
GI50 (DU-145 prostate): 3.66 µM
TGI (DU-145 prostate): 12.9 µM
GI50 (MOLT-4 leukemia): 3.84 µM
TGI (MOLT-4 leukemia): > 100 µM
GI50 (SK-MEL-5 melanoma): 3.95 µM
TGI (SK-MEL-5 melanoma): 15.7 µM
GI50 (HS 578T breast): 2.89 µM
TGI (HS 578T breast): 9.74 µM
GI50 (SK-OV-3 ovarian): 17.4 µM
TGI (SK-OV-3 ovarian): 35.1 µM
GI50 (M14 melanoma): 3.81 µM
TGI (M14 melanoma): 22.8 µM
GI50 (TK-10 renal): 1.91 µM
TGI (TK-10 renal): 5.07 µM
GI50 (OVCAR-8 ovarian): 30.2 µM
TGI (OVCAR-8 ovarian): > 100 µM
GI50 (HCT-15 colon): 4.74 µM
TGI (HCT-15 colon): 24.4 µM
GI50 (SF-295 CNS): 16.8 µM
TGI (SF-295 CNS): 31.8 µM
GI50 (OVCAR-3 ovarian): 1.77 µM
TGI (OVCAR-3 ovarian): 3.47 µM
GI50 (NCI-H522 lung): 21.6 µM
TGI (NCI-H522 lung): > 100 µM
GI50 (UACC-257 melanoma): 14.8 µM
TGI (UACC-257 melanoma): 30.1 µM
GI50 (NCI-H460 lung): 13.8 µM
TGI (NCI-H460 lung): 33.8 µM
GI50 (EKVX NSCLC): 20.2 µM
TGI (EKVX NSCLC): 39.6 µM
GI50 (UACC-62 melanoma): 2.14 µM
TGI (UACC-62 melanoma): 5.28 µM
GI50 (MALME-3M melanoma): 2.03 µM
TGI (MALME-3M melanoma): 5.75 µM
GI50 (MDA-MB-435): 4.35 µM
TGI (MDA-MB-435): 16.4 µM
GI50 (NCI-H226 lung): 7.83 µM
TGI (NCI-H226 lung): 20.9 µM
GI50 (HOP-92 NSCLC): 14.7 µM
TGI (HOP-92 NSCLC): 30.1 µM
GI50 (RXF 393 renal): 2.02 µM
TGI (RXF 393 renal): 4.15 µM
GI50 (PC-3 prostate): 4.75 µM
TGI (PC-3 prostate): 18 µM
GI50 (T-47D breast): 1.25 µM
TGI (T-47D breast): 3.67 µM
GI50 (MCF7 breast): 2.1 µM
TGI (MCF7 breast): 4.8 µM
GI50 (ACHN renal): 6.34 µM
TGI (ACHN renal): 19.2 µM
GI50 (A498 renal): 17.5 µM
TGI (A498 renal): 31.7 µM
GI50 (SK-MEL-28 melanoma): 5.05 µM
TGI (SK-MEL-28 melanoma): 16.3 µM
GI50 (SW-620 colon): 3.61 µM
TGI (SW-620 colon): 12.3 µM
GI50 (U251 CNS): 3.23 µM
TGI (U251 CNS): 10.7 µM
GI50 (OVCAR-5 ovarian): 15.1 µM
TGI (OVCAR-5 ovarian): 28.4 µM
GI50 (SK-MEL-2 melanoma): 17.3 µM
TGI (SK-MEL-2 melanoma): > 100 µM
GI50 (HT29 colon): 3.96 µM
TGI (HT29 colon): 12.7 µM
GI50 (K-562 leukemia): 4.08 µM
TGI (K-562 leukemia): > 100 µM
GI50 (LOX IMVI melanoma): 3.17 µM
TGI (LOX IMVI melanoma): 10.3 µM
GI50 (SF-539 CNS): 2.4 µM
TGI (SF-539 CNS): 5.2 µM
GI50 (HOP-62 NSCLC): 15.6 µM
TGI (HOP-62 NSCLC): 29.6 µM
GI50 (A549 NSCLC): 37 µM
TGI (A549 NSCLC): > 100 µM
GI50 (786-0 renal): 16.9 µM
TGI (786-0 renal): 45.4 µM
GI50 (BT-549 breast): 14.6 µM
TGI (BT-549 breast): 28.9 µM
